This note sets out measurements from PMC2816653, “Pre-clinical evaluation of cyclin-dependent kinase 2 and 1 inhibition in anti-estrogen-sensitive and resistant breast cancer cells” (British Journal of Cancer, 2009).

What all share (assay): biochemical
Set-up in all cases: in vitro kinase inhibition assay

For experiment [1], the target named is CDK9/cyclin T (Homo sapiens, UniProt P50750). The settings on record: read-out: NU2058 % inhibition.
For experiment [2], the target named is T1, CDK5/p25 (Homo sapiens, UniProt Q00535).
T1 construct: with p25
The settings on record: read-out: NU2058 % inhibition.

Experiment [3] addresses DYRK1a (Homo sapiens, UniProt Q13627).

CDK9/cyclin T, sequence (P50750 whole entry): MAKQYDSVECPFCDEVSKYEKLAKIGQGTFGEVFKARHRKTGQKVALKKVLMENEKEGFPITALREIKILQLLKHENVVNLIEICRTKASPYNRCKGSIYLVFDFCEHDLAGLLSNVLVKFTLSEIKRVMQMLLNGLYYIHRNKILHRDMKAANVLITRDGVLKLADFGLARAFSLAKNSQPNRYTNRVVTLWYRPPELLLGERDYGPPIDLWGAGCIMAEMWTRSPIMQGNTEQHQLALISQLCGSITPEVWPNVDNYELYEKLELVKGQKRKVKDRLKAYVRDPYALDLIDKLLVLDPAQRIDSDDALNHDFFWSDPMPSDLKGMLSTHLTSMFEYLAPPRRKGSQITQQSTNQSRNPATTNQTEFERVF
CDK9/cyclin T, sequence (O60563 whole entry partner): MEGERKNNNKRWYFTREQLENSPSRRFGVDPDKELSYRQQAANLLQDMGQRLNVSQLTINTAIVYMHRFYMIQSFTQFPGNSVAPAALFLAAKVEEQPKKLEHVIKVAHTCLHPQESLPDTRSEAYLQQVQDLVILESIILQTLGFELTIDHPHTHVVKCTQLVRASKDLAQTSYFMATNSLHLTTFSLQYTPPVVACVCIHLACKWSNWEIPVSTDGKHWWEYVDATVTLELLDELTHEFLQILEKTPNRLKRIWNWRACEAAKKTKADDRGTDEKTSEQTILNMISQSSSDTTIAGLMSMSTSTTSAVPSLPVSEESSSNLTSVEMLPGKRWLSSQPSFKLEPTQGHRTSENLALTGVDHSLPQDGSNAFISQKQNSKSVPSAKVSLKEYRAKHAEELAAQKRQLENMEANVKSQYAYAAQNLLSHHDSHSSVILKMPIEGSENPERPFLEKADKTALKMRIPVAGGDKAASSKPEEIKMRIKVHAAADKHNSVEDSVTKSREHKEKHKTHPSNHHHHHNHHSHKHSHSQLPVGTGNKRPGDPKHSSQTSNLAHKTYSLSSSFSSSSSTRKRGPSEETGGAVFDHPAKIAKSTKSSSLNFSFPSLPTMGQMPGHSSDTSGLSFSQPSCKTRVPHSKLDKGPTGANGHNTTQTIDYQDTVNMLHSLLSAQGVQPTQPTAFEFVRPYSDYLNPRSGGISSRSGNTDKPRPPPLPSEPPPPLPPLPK
T1 sequence (Q00535 whole entry): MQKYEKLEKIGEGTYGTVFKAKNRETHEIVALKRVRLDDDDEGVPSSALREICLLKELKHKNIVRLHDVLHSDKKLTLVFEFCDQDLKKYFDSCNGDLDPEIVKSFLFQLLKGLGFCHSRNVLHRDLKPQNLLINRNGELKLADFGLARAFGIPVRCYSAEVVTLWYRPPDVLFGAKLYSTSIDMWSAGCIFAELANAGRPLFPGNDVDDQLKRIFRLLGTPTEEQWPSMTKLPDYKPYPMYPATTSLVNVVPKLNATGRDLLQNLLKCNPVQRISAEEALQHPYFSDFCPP
T1 sequence (Q15078 whole entry partner): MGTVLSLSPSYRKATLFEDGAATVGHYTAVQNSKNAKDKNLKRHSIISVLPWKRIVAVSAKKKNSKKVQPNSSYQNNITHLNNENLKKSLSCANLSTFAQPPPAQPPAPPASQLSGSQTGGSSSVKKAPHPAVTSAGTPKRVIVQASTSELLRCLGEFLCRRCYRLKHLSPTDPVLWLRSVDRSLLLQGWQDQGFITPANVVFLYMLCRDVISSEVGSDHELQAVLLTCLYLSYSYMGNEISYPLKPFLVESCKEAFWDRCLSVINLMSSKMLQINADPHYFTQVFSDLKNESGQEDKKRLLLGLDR

For `Nc1nc(OCC2CCCCC2)c2nc[nH]c2n1` [NU2058], the inhibition at 100 µM was found to be 43% in experiment [1] and 50% in experiment [2].

In turn, `NS(=O)(=O)c1ccc(Nc2nc(OCC3CCCCC3)c3nc[nH]c3n2)cc1` [NU6102] gave an IC50 in experiment [3] of 0.95 µM.
